Experimental data as given in patent US9101600B2, “Compounds as RORγt modulators and uses thereof” (New York University, priority 2010, dated 2015).

Legend:
[1] = system: mouse Th17 cell differentiation; assay: Cytokine induced mouse Th17 cell differentiation (IL17a production, FACS); assay type: cell-based; conditions: for percentage of mouse Th17 cells (IL17a production): compound added Day 1, analyzed Day 4
Procedure: Cytokine induced mouse Th17 cells differentiation. Effects on mouse endogenous RORγt in a relevant physiological setting were determined by testing compounds in the Th17 cell differentiation assay. […] Th1 or regulatory T cell differentiation was used as a counter-screen method to select specific compounds that only affect Th17 cell differentiation without having pleiotrophic effects on general T cell proliferation or cytokine production.
Naive CD4 T cells were cultured with CD3/CD28 stimulatory antibodies in presence of TGFβ and IL6. Compounds were added on Day 1 and cells were analyzed on Day 4. Numbers shown in Table 3 indicate the percentage of mouse Th17 cells.
CD25^−, CD62L^+, and CD44^int-high cells were sorted from B6 mice.

[2] = target: RORγ/γt (Mus musculus, UniProt P51450, T352K); assay: RORγ/γt-luc reporter S2 cell assay / HTS (firefly luciferase); conditions: for Curve Class: RORγ/γt HTS concentration response curve class; for 80% Inhib. @: RORγ/γt reporter, S2 cells, concentration for 80% inhibition
Chain of RORγ/γt (P51450 with tags, fused parts or gaps T352K): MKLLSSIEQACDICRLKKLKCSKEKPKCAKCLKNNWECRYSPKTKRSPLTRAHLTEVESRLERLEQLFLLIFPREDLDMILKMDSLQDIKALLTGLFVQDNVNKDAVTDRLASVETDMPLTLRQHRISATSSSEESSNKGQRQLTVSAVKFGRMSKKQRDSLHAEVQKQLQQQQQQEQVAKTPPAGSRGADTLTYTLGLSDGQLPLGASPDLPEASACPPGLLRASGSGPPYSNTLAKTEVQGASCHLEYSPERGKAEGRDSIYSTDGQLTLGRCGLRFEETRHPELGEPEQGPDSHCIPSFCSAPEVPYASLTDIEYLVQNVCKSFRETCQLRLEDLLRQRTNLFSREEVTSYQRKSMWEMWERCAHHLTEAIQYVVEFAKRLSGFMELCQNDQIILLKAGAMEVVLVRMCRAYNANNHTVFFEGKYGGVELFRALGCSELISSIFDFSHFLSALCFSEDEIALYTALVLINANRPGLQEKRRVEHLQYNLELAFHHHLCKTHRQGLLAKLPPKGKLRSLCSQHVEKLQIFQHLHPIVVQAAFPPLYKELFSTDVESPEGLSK
From the text: The Drosophila S2 cell line was originally purchased from Invitrogen and was maintained in Schneider's medium supplemented with 10% heat-inactivated bovine fetal calf serum and antibiotics (Invitrogen). Gal4 DNA binding domain (G4 DBD) corresponding to amino acids 1 through 147 of Gal4 protein was PCR amplified to make a fusion construct with mouse RORγt (amino acids 79 to the carboxyl terminal end) lacking its DNA binding domain. The resulting chimeric gene was subcloned into the copper inducible pMT/V5-His A vector (available from Invitrogen). In a similar manner, Gal4 fusion constructs were prepared with mouse RORα (amino acids 142 to end) or Drosophila DHR3 (amino acids 120 to end).
In order to generate stable cell lines, cells were co-transfected with pMT-G4 DBD-RORγt, pMT-G4 DBD-RORα, pMT-G4 DBD-DHR3, or pMT-G4DBDVP16 and pHygro plasmids (Invitrogen) and screened for resistant colonies in the presence of hygromycin (0.3 mg/mL). More than 150 independent RORγ stable clones with luciferase reporters (pMt-RORγ_luc) were tested for their suitability for the high-throughput screening (HTS) based on the following criteria: high signal-to background ratio in 384- and 1,536-well plates, their high induction rate upon the addition of copper, and RORγ/γt specificity probed by the dsRORγ- or RORγ/γt antagonist-mediated suppression. Positive clones were further transfected with pUAST-firefly luciferase, polIII-Renilla luciferase, and pCoPuro (Iwaki, Figuera et al. 2003) (“Rapid selection of Drosophila S2 cells with the puromycin resistance gene.” Biotechniques 35(3): 482-4, 486.) and selected with puromycin (2.5 ug/ml). […] Using similar methods, stable clones with genomic integration of the luciferase reporters and other reporters were generated such as pMT-RORα_luc, pMT-DHR3_luc, or pMT-VP16_luc.
600 G4 DBD-RORγ/γt-luc reporter (#25) or G4 DBD-VP16-luc reporter cells were distributed into each well of 1,536-well white bottom plates in 4 μl S2 cell culture volume containing hygromicin (300 μg/ml) and puromycin (2 μg/ml). Small compounds in seven different concentrations range from 46 μM to 1.7 nM were pin-transferred (23 nl) by a robot (Inglese et al., 2006, Proc. Natl. Acad. Sci. 103:11473-8). […] After 20-hour incubation at ambient temperature, 1.5 μl firefly luciferase detection mix was added and the luciferase activities were measured in 10 min. ViewLux luminometers were used for measuring luciferase signal.
Since their cognate DNA binding sites were not well characterized, the DNA binding domains (DBD) of RORγ/γt, RORα(mouse homolog for PORγ), and DHR3 (Drosophila orthologue for ROR family proteins) were replaced with the heterologous yeast GAL4 DBD. The transcriptionally active domain of general transcriptional activator VP16 was also fused with GAL4 DBD.

| SMILES | Curve Class [2] | AC50 [2] | other results |
| --- | --- | --- | --- |
| CCOc1ccc(-c2cc(CCCC(=O)NCc3cccnc3)no2)cc1 [MLS000118457-02] |  |  | percentage of mouse Th17 cells (IL17a production) ([1]; 20 μM, DMSO 17% Th17): 10.7% |
| Cc1nn(-c2cc(C)c3ccccc3n2)c2c1C1C(C2)C1(C)C (centres unmarked) [MLS000526165-02] |  |  | percentage of mouse Th17 cells (IL17a production) ([1]; 20 μM, DMSO 17% Th17): 8.3% |
| CCOC(=O)C1CCN(CC(=O)Nc2cc(C)nn2-c2nc3ccccc3s2)CC1 [MLS000569401-02] |  |  | percentage of mouse Th17 cells (IL17a production) ([1]; 5 μM, DMSO 25% Th17): 15% |
| Cc1cccc(-c2nc3cc(NC(=O)C4CCCO4)ccc3o2)c1 (centres unmarked) [MLS000700815-02] |  |  | percentage of mouse Th17 cells (IL17a production) ([1]; 20 μM, DMSO 17% Th17): 11.9% |
| C[C@H]1[C@H](C)CC[C@]2(C(=O)O)CC[C@]3(C)C(=CC[C@@H]4[C@@]5(C)CC[C@H](O)C(C)(C)[C@@H]5CC[C@]43C)[C@H]12 [MLS000728569-02] |  |  | percentage of mouse Th17 cells (IL17a production) ([1]; 5 μM, DMSO 25% Th17): 3.7%; percentage of mouse Th17 cells (IL17a production) ([1]; 20 μM, DMSO 17% Th17): dead |
| C=C(NC(=O)c1ccccc1)N1CCN(c2ncc3c(=O)c(C(=O)O)cn(CC)c3n2)CC1 [MLS000777984-02] |  |  | percentage of mouse Th17 cells (IL17a production) ([1]; 20 μM, DMSO 17% Th17): 8.9%; effect on mouse Th17 cell differentiation / IL-17a in mouse CD4 T cells (in words) ([1]; IL-6 and TGF-β): RORγt specific inhibitory effects |
| Cc1cc(C)n(-c2nc(SCC(=O)O)c3c4c(sc3n2)CCCC4)n1 [MLS000778763-02] |  |  | percentage of mouse Th17 cells (IL17a production) ([1]; 20 μM, DMSO 17% Th17): 10.2% |
| CCOC(=O)[C@H]1[C@H]2COc3cc(OC)ccc3[C@@H]2N2C(=O)N(c3ccc(Br)cc3)C(=O)[C@@]12C [MLS001066259-01] | 4 |  |  |
| CCOC(=O)[C@@H]1[C@H]2COc3ccc(Br)cc3[C@H]2N2C(=O)N(c3ccc(F)cc3)C(=O)[C@@]12C [MLS001066263-01] | 4 | 0.0045 µM |  |
| CCOC(=O)[C@@H]1[C@H]2COc3cc(OC)ccc3[C@@H]2N2C(=O)N(c3ccc(Cl)cc3)C(=O)[C@@]12C [MLS001066268-01] | −2.1 | 8.91 µM |  |
| CCOC(=O)[C@@H]1[C@H]2COc3cc(OC)ccc3[C@@H]2N2C(=O)N(c3cccc(C)c3)C(=O)[C@@]12C [MLS001066270-01] | −3 | 12.6 µM |  |
| CCOC(=O)[C@@H]1[C@H]2COc3ccccc3[C@H]2N2C(=O)N(c3ccc(C(F)(F)F)cc3)C(=O)[C@]12C [MLS001066275-01] | 4 | 5.01 µM |  |
| CCOC(=O)[C@@H]1[C@H]2COc3ccccc3[C@@H]2N2C(=O)N(c3cccc(Cl)c3)C(=O)[C@@]12C [MLS001066276-01] | −3 | 17.8 µM |  |
| CCOC(=O)[C@@H]1[C@H]2COc3cc(OC)ccc3[C@@H]2N2C(=O)N(c3ccc(OC)cc3)C(=O)[C@]12C [MLS001066279-01] | 4 |  |  |
| CCOC(=O)[C@@H]1[C@H]2COc3cc(OC)ccc3[C@@H]2N2C(=O)N(c3cccc(Cl)c3)C(=O)[C@@]12C [MLS001066281-01] | −2.2 | 11.2 µM |  |
| CCOC(=O)[C@@H]1[C@H]2COc3ccccc3[C@@H]2N2C(=O)N(c3cccc(Cl)c3)C(=O)[C@]12C [MLS001066286-01] | 4 |  |  |
| CCOC(=O)[C@@H]1[C@H]2COc3cc(OC)ccc3[C@@H]2N2C(=O)N(c3cccc(Cl)c3)C(=O)[C@]12C [MLS001066291-01] | 4 | 0.112 µM |  |
| CCOC(=O)[C@@H]1[C@H]2COc3ccc(Br)cc3[C@@H]2N2C(=O)N(c3ccc(OC)cc3)C(=O)[C@]12C [MLS001066294-01] | 4 | 0.112 µM |  |
| CCOC(=O)[C@@H]1[C@H]2COc3cc(OC)ccc3[C@H]2N2C(=O)N(c3ccc(C)cc3)C(=O)[C@@]12C [MLS001066297-01] | 4 | 0.891 µM |  |
| CCOC(=O)[C@@H]1[C@H]2COc3cc(OC)ccc3[C@H]2N2C(=O)N(c3cccc(Cl)c3)C(=O)[C@]12C [MLS001066301-01] | 4 | 0.631 µM |  |
| CCOC(=O)[C@@H]1[C@H]2COc3ccc(Br)cc3[C@H]2N2C(=O)N(c3ccc(C)cc3)C(=O)[C@]12C [MLS001066302-01] | 4 |  |  |
| CCOC(=O)[C@@H]1[C@H]2COc3ccccc3[C@@H]2N2C(=O)N(c3cccc(C)c3)C(=O)[C@]12C [MLS001066305-01] | 4 | 0.891 µM |  |
| CCOC(=O)[C@@H]1[C@H]2COc3ccccc3[C@H]2N2C(=O)N(c3cccc(Cl)c3)C(=O)[C@@]12C [MLS001066306-01] | 4 | 7.08 µM |  |

| SMILES | Curve Class [2] | AC50 [2] | other results |
| --- | --- | --- | --- |
| CCOC(=O)[C@H]1[C@H]2COc3cc(OC)ccc3[C@@H]2N2C(=O)N(c3ccc(Cl)cc3)C(=O)[C@@]12C [MLS001066308-01] | 4 |  |  |
| CCOC(=O)[C@@H]1[C@H]2COc3cc(OC)ccc3[C@H]2N2C(=O)N(c3cccc(Cl)c3)C(=O)[C@@]12C [MLS001066311-01] | 4 | 10 µM |  |
| CCOC(=O)[C@@H]1[C@H]2COc3ccc(Br)cc3[C@H]2N2C(=O)N(c3ccc(Cl)cc3)C(=O)[C@@]12C [MLS001066313-01] | 4 | 0.0447 µM |  |
| CCOC(=O)[C@@H]1[C@H]2COc3cc(OC)ccc3[C@@H]2N2C(=O)N(c3ccc(Br)cc3)C(=O)[C@@]12C [MLS001066318-01] | −2.1 | 7.94 µM |  |
| CCOC(=O)[C@@H]1[C@H]2COc3cc(OC)ccc3[C@@H]2N2C(=O)N(c3ccc(C(F)(F)F)cc3)C(=O)[C@@]12C [MLS001066319-01] | −3 | 15.8 µM |  |
| CCOC(=O)[C@H]1[C@H]2COc3cc(OC)ccc3[C@@H]2N2C(=O)N(c3cccc(Cl)c3)C(=O)[C@@]12C [MLS001066321-01] | 4 | 6.31 µM |  |
| CCOC(=O)[C@@H]1[C@H]2COc3ccccc3[C@@H]2N2C(=O)N(c3ccc(Cl)cc3)C(=O)[C@]12C [MLS001066434-01] | 4 | 3.16 µM |  |
| CCOC(=O)[C@@H]1[C@H]2COc3ccccc3[C@@H]2N2C(=O)N(c3ccc(C)cc3)C(=O)[C@]12C [MLS001066443-01] | 4 | 3.98 µM |  |
| CCOC(=O)[C@@H]1[C@H]2COc3ccccc3[C@H]2N2C(=O)N(c3ccc(Cl)cc3)C(=O)[C@]12C [MLS001066444-01] | 4 | 0.0071 µM |  |
| CCOC(=O)[C@@H]1[C@H]2COc3ccccc3[C@H]2N2C(=O)N(c3ccc(C)cc3)C(=O)[C@]12C [MLS001066453-01] | 4 | 0.282 µM |  |
| CCOC(=O)[C@@H]1[C@H]2COc3ccccc3[C@H]2N2C(=O)N(c3ccc(Cl)cc3)C(=O)[C@@]12C [MLS001066454-01] | 4 | 11.2 µM |  |
| CCOC(=O)[C@@H]1[C@H]2COc3ccccc3[C@@H]2N2C(=O)N(c3ccccc3)C(=O)[C@@]12C [MLS001066482-01] | −2.1 | 12.6 µM |  |
| CCOC(=O)[C@@H]1[C@H]2COc3ccccc3[C@@H]2N2C(=O)N(c3ccc(F)cc3)C(=O)[C@@]12C [MLS001066483-01] | −2.2 | 12.6 µM |  |
| CCOC(=O)[C@@H]1[C@H]2COc3ccccc3[C@@H]2N2C(=O)N(c3ccccc3)C(=O)[C@]12C [MLS001066492-01] | 4 | 0.141 µM |  |
| CCOC(=O)[C@@H]1[C@H]2COc3ccccc3[C@H]2N2C(=O)N(c3ccccc3)C(=O)[C@]12C [MLS001066502-01] | 4 | 0.794 µM |  |
| CCOC(=O)[C@@H]1[C@H]2COc3ccccc3[C@H]2N2C(=O)N(c3ccc(F)cc3)C(=O)[C@]12C [MLS001066503-01] | 4 | 2.51 µM |  |
| CCOC(=O)[C@@H]1[C@H]2COc3ccccc3[C@@H]2N2C(=O)N(c3ccc(OC)cc3)C(=O)[C@@]12C [MLS001066514-01] | 4 | 14.1 µM |  |
| CCOC(=O)[C@@H]1[C@H]2COc3ccccc3[C@@H]2N2C(=O)N(c3ccc(Cl)cc3)C(=O)[C@@]12C [MLS001066523-01] | −3 | 15.8 µM |  |
| CC(C)[C@@H](NC(=O)C1CCN(C(=O)[C@@H]2CCCN2C(=O)OC(C)(C)C)CC1)C(=O)NCc1ccc(F)cc1 [MLS001141034-02] |  |  | IC50 [2]: 38.7 µM; 80% Inhib. @ [2]: 161.2 µM |
| COc1ccccc1CNC(=O)[C@@H](NC(=O)C1CCN(C(=O)[C@@H]2CCCN2C(=O)OC(C)(C)C)CC1)C(C)C [MLS001157801-02] |  |  | IC50 [2]: 14.7 µM; 80% Inhib. @ [2]: 45.85 µM |
| CN1CCN(C(=O)CCN2C(=O)/C(=C\c3ccccc3F)SC2=S)CC1 [MLS001201644-02] |  |  | IC50 [2]: 16.7 µM; 80% Inhib. @ [2]: 40.36 µM |
| CCOC(=O)[C@@H]1[C@H]2COc3ccc(Br)cc3[C@@H]2N2C(=O)N(c3ccc(C)cc3)C(=O)[C@]12C [MLS0010660292-01] | 4 | 11.2 µM |  |
